Laboratory results from patent publication US8492401B2, “Thiazolopyridine sirtuin modulating compounds” (Sirtris Pharmaceuticals, priority 2008, dated 2013).

Target: T1, SIRT1 (Homo sapiens, UniProt Q96EB6)
T1 sequence (Q96EB6 1-747): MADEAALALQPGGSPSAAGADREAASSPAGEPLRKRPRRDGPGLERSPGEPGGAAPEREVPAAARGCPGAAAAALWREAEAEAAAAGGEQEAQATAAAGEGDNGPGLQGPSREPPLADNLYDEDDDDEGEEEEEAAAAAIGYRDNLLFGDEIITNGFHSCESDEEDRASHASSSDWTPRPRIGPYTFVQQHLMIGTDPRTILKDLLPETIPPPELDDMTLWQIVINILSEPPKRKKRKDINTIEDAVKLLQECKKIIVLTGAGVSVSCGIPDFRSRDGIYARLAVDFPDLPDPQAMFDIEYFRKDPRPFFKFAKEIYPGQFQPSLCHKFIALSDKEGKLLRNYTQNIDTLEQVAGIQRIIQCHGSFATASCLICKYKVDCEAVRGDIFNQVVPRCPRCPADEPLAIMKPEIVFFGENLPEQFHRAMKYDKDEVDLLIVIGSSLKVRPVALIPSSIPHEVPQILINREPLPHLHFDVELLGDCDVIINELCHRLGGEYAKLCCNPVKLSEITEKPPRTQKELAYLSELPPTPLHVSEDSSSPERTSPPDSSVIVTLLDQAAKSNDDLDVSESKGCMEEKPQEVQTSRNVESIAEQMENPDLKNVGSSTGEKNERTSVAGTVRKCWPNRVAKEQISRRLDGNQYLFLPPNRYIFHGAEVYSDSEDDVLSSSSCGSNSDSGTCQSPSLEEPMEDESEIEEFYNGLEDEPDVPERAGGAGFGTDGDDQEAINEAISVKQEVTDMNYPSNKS
Assay: Mass spectrometry based assay to identify modulators (activators) of SIRT1 activity
Type: biochemical
Settings: 0.5 μM peptide substrate, 120 μM βNAD+, 10 nM SIRT1, 25 minutes at 25° C.; for EC1.5: SIRT1 activation
Excerpt: A mass spectrometry based assay was used to identify modulators of SIRT1 activity. The mass spectrometry based assay utilizes a peptide having 20 amino acid residues as follows: Ac-EE-K(biotin)-GQSTSSHSK(Ac)NleSTEG-K(5TMR)-EE-NH2 (SEQ ID NO: 1) wherein K(Ac) is an acetylated lysine residue and Nle is a norleucine. The peptide is labeled with the fluorophore 5TMR (excitation 540 nm/emission 580 nm) at the C-terminus. The sequence of the peptide substrate is based on p53 with several modifications. In addition, the methionine residue naturally present in the sequence was replaced with the norleucine because the methionine may be susceptible to oxidation during synthesis and purification.
The mass spectrometry assay is conducted as follows: 0.5 μM peptide substrate and 120 μM βNAD^+ is incubated with 10 nM SIRT1 for 25 minutes at 25° C. in a reaction buffer (50 mM Tris-acetate pH 8, 137 mM NaCl, 2.7 mM KCl, 1 mM MgCl2, 5 mM DTT, 0.05% BSA). Test compounds may be added to the reaction as described above. […] After the 25 minute incubation with SIRT1, 10 μL of 10% formic acid is added to stop the reaction. Reactions are sealed and frozen for later mass spec analysis. Determination of the mass of the substrate peptide allows for precise determination of the degree of acetylation (i.e. starting material) as compared to deacetylated peptide (product).
A control for inhibition of sirtuin activity is conducted by adding 1 μL of 500 mM nicotinamide as a negative control at the start of the reaction (e.g., permits determination of maximum sirtuin inhibition). A control for activation of sirtuin activity is conducted using 10 nM of sirtuin protein, with 1 μL of DMSO in place of compound, to determine the amount of deacetylation of the substrate at a given timepoint within the linear range of the assay. This timepoint is the same as that used for test compounds and, within the linear range, the endpoint represents a change in velocity.
For the above assay, SIRT1 protein was expressed and purified as follows. […] The protein was expressed by induction with 1 mM IPTG as an N-terminal His-tag fusion protein at 18° C. overnight and harvested at 30,000×g. Cells were lysed with lysozyme in lysis buffer (50 mM Tris-HCl, 2 mM Tris[2-carboxyethyl]phosphine (TCEP), 10 μM ZnCl2, 200 mM NaCl) and further treated with sonication for 10 min for complete lysis. The protein was purified over a Ni-NTA column (Amersham) and fractions containing pure protein were pooled, concentrated and run over a sizing column (Sephadex S200 26/60 global). The peak containing soluble protein was collected and run on an Ion-exchange column (MonoQ). Gradient elution (200 mM-500 mM NaCl) yielded pure protein. This protein was concentrated and dialyzed against dialysis buffer (20 mM Tris-HCl, 2 mM TCEP) overnight. The protein was aliquoted and frozen at −80° C. until further use.
Sirtuin modulating compounds that activated SIRT1 were identified using the assay described above and are shown below in Table 1. The EC1.5 values for the activating compounds are represented by A (EC1.5≦1 uM), B (EC1.5>1 and ≦10 uM), or C (EC1.5>10 uM). The percent maximum fold activation is represented by A (Fold activation≧300%), B (Fold Activation≧150% and <300%), or C (Fold Activation<150%).

Structure (SMILES)	FOLD ACT. (percent maximum fold activation)	EC1.5
COCCN1CCN(Cc2oc(-c3ccccc3)nc2C(=O)Nc2ccccc2-c2nc3cccnc3s2)CC1 [Compound 19, 5-((4-(2-methoxyethyl)piperazin-1-yl)methyl)-2-phenyl-N-(2-(thiazolo[5,4-b]pyridin-2-yl)phenyl)oxazole-4-carboxamide]	C (Fold Activation<150%)	C (EC1.5>10 uM)
O=C(Nc1ccccc1-c1nc2cccnc2s1)c1nc(-c2ccccc2)oc1CN1CCCC1 [Compound 20, 2-phenyl-5-(pyrrolidin-1-ylmethyl)-N-(2-(thiazolo[5,4-b]pyridin-2-yl)phenyl)oxazole-4-carboxamide]	B (Fold Activation≧150% and <300%)	B (EC1.5>1 and ≦10 uM)
CC(C)(C)OC(=O)N1CCN(Cc2oc(-c3ccccc3)nc2C(=O)Nc2ccccc2-c2nc3cccnc3s2)CC1 [Compound 21, tert-butyl 4-((2-phenyl-4-(2-(thiazolo[5,4-b]pyridin-2-yl)phenylcarbamoyl)oxazol-5-yl)methyl)piperazine-1-carboxylate]	C (Fold Activation<150%)	C (EC1.5>10 uM)
O=C(Nc1ccccc1-c1nc2cc(CN3CCCC3)cnc2s1)c1nc(-c2ccccc2)cs1 [Compound 22, 4-phenyl-N-(2-(6-(pyrrolidin-1-ylmethyl)thiazolo[5,4-b]pyridin-2-yl)phenyl)thiazole-2-carboxamide]	B (Fold Activation≧150% and <300%)	A (EC1.5≦1 uM)
COCCN1CCN(Cc2cnc3sc(-c4ccccc4NC(=O)c4nc(-c5ccccc5)cs4)nc3c2)CC1 [Compound 23, N-(2-(6-((4-(2-methoxyethyl)piperazin-1-yl)methyl)thiazolo[5,4-b]pyridin-2-yl)phenyl)-4-phenylthiazole-2-carboxamide]	A (Fold activation≧300%)	A (EC1.5≦1 uM)
O=C(Nc1ccccc1-c1nc2cc(CN3CCOCC3)cnc2s1)c1nc(-c2ccccc2)cs1 [Compound 24, N-(2-(6-(morpholinomethyl)thiazolo[5,4-b]pyridin-2-yl)phenyl)-4-phenylthiazole-2-carboxamide]	B (Fold Activation≧150% and <300%)	A (EC1.5≦1 uM)
